# Measured values reported in US8293768B2, “Organic compounds” (Novartis AG, priority 2006, dated 2012).
row,SMILES,melting point [°C]
1,"Cc1nc(N2C[C@@H](Cc3ccccc3)NC2=O)sc1C(=O)NCc1ccccc1 [Example 9.25, (R)—N-benzyl-2-(4-benzyl-2-oxoimidazolidin-1-yl)-4-methylthiazole-5-carboxamide]",212 to 214
2,"Cc1nc(-n2cnn(CCOC(=O)NCc3ccc(F)cc3)c2=O)sc1C(=O)NCc1cccnc1 [Example 48, 2-(4-(4-methyl-5-(pyridin-3-ylmethylcarbamoyl)thiazol-2-yl)-5-oxo-4,5-dihydro-1H-1,2,4-triazol-1-yl)ethyl 4-fluorobenzylcarbamate]",149 to 150
3,"Cc1nc(-n2cnn(Cc3ccc(F)cc3)c2=O)sc1C(=O)NCc1nccs1 [Example 21.12, 2-(1-(4-fluorobenzyl)-5-oxo-1H-1,2,4-triazol-4(5H)-yl)-4-methyl-N-(thiazol-2-ylmethyl)thiazole-5-carboxamide]",189 to 190
4,"Cc1nc(-n2cnn(CCOc3ccc(F)cc3)c2=O)sc1C(=O)NCc1cccnc1 [Example 21.2, 2-(1-(2-(4-fluorophenoxy)ethyl)-5-oxo-1H-1,2,4-triazol-4(5H)-yl)-4-methyl-N-(pyridin-3-ylmethyl)thiazole-5-carboxamide]",154 to 155
5,"Cc1cc(-n2cnn(Cc3ccc(S(C)(=O)=O)cc3)c2=O)sc1C(=O)NCc1cccnc1 [Example 31.4, 3-methyl-5-(1-(4-(methylsulfonyl)benzyl)-5-oxo-1H-1,2,4-triazol-4(5H)-yl)-N-(pyridin-3-ylmethyl)thiophene-2-carboxamide]",208 to 210
6,"Cc1nc(-n2cnn(Cc3ccc(F)cc3)c2=O)sc1C(=O)NCc1ncco1 [Example 21.8, 2-(1-(4-fluorobenzyl)-5-oxo-1H-1,2,4-triazol-4(5H)-yl)-4-methyl-N-(oxazol-2-ylmethyl)thiazole-5-carboxamide]",152 to 153
7,"Cc1nc(N2CCN(Cc3ccccc3)S2(=O)=O)sc1C(=O)NCc1ccccc1 [Example 27.1, N-benzyl-2-(5-benzyl-1,1-dioxido-1,2,5-thiadiazolidin-2-yl)-4-methyl-1,3-thiazole-5-carboxamide]",135 to 137

# Results, then the compound that gave them:
row,melting point [°C],SMILES
1,233 to 235,"Cc1nc(N2CCN(Cc3ccncc3)C2=O)sc1C(=O)NCc1cccnc1 [Example 33, 4-methyl-2-(2-oxo-3-(pyridin-4-ylmethyl)imidazolidin-1-yl)-N-(pyridin-3-ylmethyl)thiazole-5-carboxamide]"
2,133 to 134,"Cc1nc(N2C(=O)N(Cc3ccc(F)cc3)CC2O)sc1C(=O)NCc1ccccc1 (centres unmarked) [Example 16, N-benzyl-2-(3-(4-fluorobenzyl)-5-hydroxy-2-oxoimidazolidin-1-yl)-4-methylthiazole-5-carboxamide]"
3,183 to 184,"Cc1nc(N2CCN(Cc3ccc(F)cc3)C2=O)sc1C(=O)NCCN1CCCC1 [Example 8.4, 2-(3-(4-fluorobenzyl)-2-oxoimidazolidin-1-yl)-4-methyl-N-(2-(pyrrolidin-1-yl)ethyl)thiazole-5-carboxamide]"
4,226 to 228,"Cc1nc(N2CCNC2=O)sc1C(=O)NCc1ccccc1 [Example 22, N-benzyl-4-methyl-2-(2-oxoimidazolidin-1-yl)thiazole-5-carboxamide]"
5,185 to 188,"Cc1cc(CN2CCN(c3nc(C)c(C(=O)NCc4cccnc4)s3)C2=O)no1 [Example 32.3, 4-methyl-2-(3-((5-methylisoxazol-3-yl)methyl)-2-oxoimidazolidin-1-yl)-N-(pyridin-3-ylmethyl)thiazole-5-carboxamide]"
6,236 to 238,"CNC(=O)c1ccc(CN2CCN(c3nc(C)c(-c4cc(C)[nH]n4)s3)C2=O)cc1 [Example 40.2, N-methyl-4-((3-(4-methyl-5-(3-methyl-1H-pyrazol-5-yl)thiazol-2-yl)-2-oxoimidazolidin-1-yl)methyl)benzamide]"
7,173 to 175,"CNC(=O)c1ccc(CN2CCN(c3nc(C)c(C(C)=O)s3)C2=O)cc1 [Example 8.6, 4-((3-(5-acetyl-4-methylthiazol-2-yl)-2-oxoimidazolidin-1-yl)methyl)-N-methylbenzamide]"
